{"source": "the supplement of paper PMC10307832", "test_in_all_cases": "relative viability (nuclei count vs DMSO), 5 days (fraction); higher = more cells survive", "key": {"COR-L 105": {"tested_on": "COR-L 105", "summary_of_the_method": "(§1)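 Each reported value is a median over duplicate plates. It expresses relative viability: treated-well nuclei count divided by vehicle-well nuclei count. Lung cancer cell lines in 1536-well plates were dosed by pin tool a day after seeding, alone with one drug or with a fixed anchor-drug dose plus five library-drug doses (not always all listed) in √10 steps, and nuclei were counted after 5 days.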"}, "COR-L23": {"tested_on": "COR-L23", "summary_of_the_method": "as §1"}, "EKVX": {"tested_on": "EKVX", "summary_of_the_method": "as §1"}, "HARA": {"tested_on": "HARA", "summary_of_the_method": "as §1"}, "HOP-62": {"tested_on": "HOP-62", "summary_of_the_method": "as §1"}, "NCI-H1355": {"tested_on": "NCI-H1355", "summary_of_the_method": "as §1"}, "NCI-H1395": {"tested_on": "NCI-H1395", "summary_of_the_method": "as §1"}, "NCI-H1734": {"tested_on": "NCI-H1734", "summary_of_the_method": "as §1"}, "NCI-H1755": {"tested_on": "NCI-H1755", "summary_of_the_method": "as §1"}, "NCI-H1793": {"tested_on": "NCI-H1793", "summary_of_the_method": "as §1"}, "NCI-H1993": {"tested_on": "NCI-H1993", "summary_of_the_method": "as §1"}, "NCI-H2009": {"tested_on": "NCI-H2009", "summary_of_the_method": "as §1"}, "NCI-H2170": {"tested_on": "NCI-H2170", "summary_of_the_method": "as §1"}, "NCI-H2228": {"tested_on": "NCI-H2228", "summary_of_the_method": "as §1"}, "NCI-H2342": {"tested_on": "NCI-H2342", "summary_of_the_method": "as §1"}, "NCI-H2347": {"tested_on": "NCI-H2347", "summary_of_the_method": "as §1"}, "NCI-H322M": {"tested_on": "NCI-H322M", "summary_of_the_method": "as §1"}, "NCI-H358": {"tested_on": "NCI-H358", "summary_of_the_method": "as §1"}, "NCI-H522": {"tested_on": "NCI-H522", "summary_of_the_method": "as §1"}, "NCI-H647": {"tested_on": "NCI-H647", "summary_of_the_method": "as §1"}, "NCI-H838": {"tested_on": "NCI-H838", "summary_of_the_method": "as §1"}, "PC-14": {"tested_on": "PC-14", "summary_of_the_method": "as §1"}, "SK-MES-1": {"tested_on": "SK-MES-1", "summary_of_the_method": "as §1"}, "UMC-11": {"tested_on": "UMC-11", "summary_of_the_method": "as §1"}}, "data": [{"compound": "CC(C)Oc1cc(Nc2nc(N[C@@H](C)c3ccc(F)cn3)ncc2Cl)n[nH]1", "note": "[AZ23] + Nc1nc2[nH]cc(CCc3ccc(C(=O)N[C@@H](CCC(=O)O)C(=O)O)cc3)c2c(=O)[nH]1 [Pemetrexed] (partner 0.2 µM)", "values": [{"measurement": "relative viability", "setting": "COR-L 105; first compound 0.01 µM", "value": 0.902}, {"measurement": "relative viability", "setting": "COR-L 105; first compound 0.03162 µM", "value": 1.24}, {"measurement": "relative viability", "setting": "COR-L 105; first compound 0.3162 µM", "value": 1.1}, {"measurement": "relative viability", "setting": "COR-L23; first compound 0.01 µM", "value": 0.172}, {"measurement": "relative viability", "setting": "COR-L23; first compound 0.03162 µM", "value": 0.193}, {"measurement": "relative viability", "setting": "COR-L23; first compound 0.3162 µM", "value": 0.189}, {"measurement": "relative viability", "setting": "EKVX; first compound 0.01 µM", "value": 0.24}, {"measurement": "relative viability", "setting": "EKVX; first compound 0.03162 µM", "value": 0.5}, {"measurement": "relative viability", "setting": "EKVX; first compound 0.3162 µM", "value": 0.381}, {"measurement": "relative viability", "setting": "HARA; first compound 0.01 µM", "value": 0.147}, {"measurement": "relative viability", "setting": "HARA; first compound 0.03162 µM", "value": 0.309}, {"measurement": "relative viability", "setting": "HARA; first compound 0.3162 µM", "value": 0.281}, {"measurement": "relative viability", "setting": "HOP-62; first compound 0.01 µM", "value": 0.287}, {"measurement": "relative viability", "setting": "HOP-62; first compound 0.03162 µM", "value": 0.359}, {"measurement": "relative viability", "setting": "HOP-62; first compound 0.3162 µM", "value": 0.359}, {"measurement": "relative viability", "setting": "NCI-H1355; first compound 0.01 µM", "value": 1.13}, {"measurement": "relative viability", "setting": "NCI-H1355; first compound 0.03162 µM", "value": 1.11}, {"measurement": "relative viability", "setting": "NCI-H1355; first compound 0.3162 µM", "value": 1.05}, {"measurement": "relative viability", "setting": "NCI-H1395; first compound 0.03162 µM", "value": 0.97}, {"measurement": "relative viability", "setting": "NCI-H1395; first compound 0.3162 µM", "value": 0.929}, {"measurement": "relative viability", "setting": "NCI-H1734; first compound 0.01 µM", "value": 0.358}, {"measurement": "relative viability", "setting": "NCI-H1734; first compound 0.03162 µM", "value": 0.454}, {"measurement": "relative viability", "setting": "NCI-H1734; first compound 0.3162 µM", "value": 0.41}, {"measurement": "relative viability", "setting": "NCI-H1755; first compound 0.01 µM", "value": 0.401}, {"measurement": "relative viability", "setting": "NCI-H1755; first compound 0.03162 µM", "value": 0.459}, {"measurement": "relative viability", "setting": "NCI-H1755; first compound 0.3162 µM", "value": 0.468}, {"measurement": "relative viability", "setting": "NCI-H1793; first compound 0.01 µM", "value": 0.986}, {"measurement": "relative viability", "setting": "NCI-H1793; first compound 0.03162 µM", "value": 0.92}, {"measurement": "relative viability", "setting": "NCI-H1793; first compound 0.3162 µM", "value": 0.979}, {"measurement": "relative viability", "setting": "NCI-H1993; first compound 0.01 µM", "value": 0.589}, {"measurement": "relative viability", "setting": "NCI-H1993; first compound 0.03162 µM", "value": 0.564}, {"measurement": "relative viability", "setting": "NCI-H1993; first compound 0.3162 µM", "value": 0.563}, {"measurement": "relative viability", "setting": "NCI-H2009; first compound 0.01 µM", "value": 1.16}, {"measurement": "relative viability", "setting": "NCI-H2009; first compound 0.03162 µM", "value": 1.1}, {"measurement": "relative viability", "setting": "NCI-H2009; first compound 0.3162 µM", "value": 1.02}, {"measurement": "relative viability", "setting": "NCI-H2170; first compound 0.01 µM", "value": 0.261}, {"measurement": "relative viability", "setting": "NCI-H2170; first compound 0.03162 µM", "value": 0.265}, {"measurement": "relative viability", "setting": "NCI-H2170; first compound 0.3162 µM", "value": 0.256}, {"measurement": "relative viability", "setting": "NCI-H2228; first compound 0.01 µM", "value": 0.301}, {"measurement": "relative viability", "setting": "NCI-H2228; first compound 0.03162 µM", "value": 0.407}, {"measurement": "relative viability", "setting": "NCI-H2228; first compound 0.3162 µM", "value": 0.354}, {"measurement": "relative viability", "setting": "NCI-H2342; first compound 0.01 µM", "value": 0.903}, {"measurement": "relative viability", "setting": "NCI-H2342; first compound 0.03162 µM", "value": 0.811}, {"measurement": "relative viability", "setting": "NCI-H2342; first compound 0.3162 µM", "value": 0.776}, {"measurement": "relative viability", "setting": "NCI-H2347; first compound 0.01 µM", "value": 0.379}, {"measurement": "relative viability", "setting": "NCI-H2347; first compound 0.03162 µM", "value": 0.412}, {"measurement": "relative viability", "setting": "NCI-H2347; first compound 0.3162 µM", "value": 0.459}, {"measurement": "relative viability", "setting": "NCI-H322M; first compound 0.01 µM", "value": 0.536}, {"measurement": "relative viability", "setting": "NCI-H322M; first compound 0.03162 µM", "value": 0.617}, {"measurement": "relative viability", "setting": "NCI-H322M; first compound 0.3162 µM", "value": 0.689}, {"measurement": "relative viability", "setting": "NCI-H358; first compound 0.01 µM", "value": 0.151}, {"measurement": "relative viability", "setting": "NCI-H358; first compound 0.03162 µM", "value": 0.175}, {"measurement": "relative viability", "setting": "NCI-H358; first compound 0.3162 µM", "value": 0.17}, {"measurement": "relative viability", "setting": "NCI-H522; first compound 0.01 µM", "value": 1}, {"measurement": "relative viability", "setting": "NCI-H522; first compound 0.03162 µM", "value": 1}, {"measurement": "relative viability", "setting": "NCI-H522; first compound 0.3162 µM", "value": 1.11}, {"measurement": "relative viability", "setting": "NCI-H647; first compound 0.01 µM", "value": 0.151}, {"measurement": "relative viability", "setting": "NCI-H647; first compound 0.03162 µM", "value": 0.192}, {"measurement": "relative viability", "setting": "NCI-H647; first compound 0.3162 µM", "value": 0.182}, {"measurement": "relative viability", "setting": "NCI-H838; first compound 0.01 µM", "value": 0.207}, {"measurement": "relative viability", "setting": "NCI-H838; first compound 0.03162 µM", "value": 0.27}, {"measurement": "relative viability", "setting": "NCI-H838; first compound 0.3162 µM", "value": 0.243}, {"measurement": "relative viability", "setting": "PC-14; first compound 0.01 µM", "value": 0.127}, {"measurement": "relative viability", "setting": "PC-14; first compound 0.03162 µM", "value": 0.136}, {"measurement": "relative viability", "setting": "PC-14; first compound 0.3162 µM", "value": 0.147}, {"measurement": "relative viability", "setting": "SK-MES-1; first compound 0.03162 µM", "value": 1.03}, {"measurement": "relative viability", "setting": "SK-MES-1; first compound 0.3162 µM", "value": 1.03}, {"measurement": "relative viability", "setting": "UMC-11; first compound 0.01 µM", "value": 0.802}, {"measurement": "relative viability", "setting": "UMC-11; first compound 0.03162 µM", "value": 0.814}, {"measurement": "relative viability", "setting": "UMC-11; first compound 0.3162 µM", "value": 0.791}]}]}
